We go through nine compounds from patent EP0250254A1, “Cis & trans stilbenes and their composition for the treatment of hypertension” (McNeilab, Inc., priority 1986, dated 1987).

Each structure is given as a SMILES string. Structures can show the parent of a compound that is named as a salt. Where two headings read alike, the source gives them in different places. Marks after values point to notes of the source that are not given here.

One assay deals with coronary arteries. The experiment in a line: Langendorff's isolated heart preparation, increase in coronary flow. To be noted: read-out: EC30 (minimum concentration needed to elicit a 30 percent increase in coronary flow). Here is the method: In addition to their utility in the treatment of hypertension, the compounds of formula (I) are useful in the treatment of the symptoms of angina pectoris by virtue of their ability to dilate coronary arteries. Their activity was measured using the "Langendorff's isolated heart" preparation. This test has been described in "Pharmacological Experiments on Isolated Preparations", Staff of the Department of Pharmacology, University of Edinborough, 2nd Ed., Churchill Livingstone, N.Y., l970, pp. ll2-ll9. The test compounds were administered at concentrations of 3000, l000, 300, l00, 30, l0, 3, l and 0.3 nanomolar (l0⁻⁹ molar).
The minimum concentration (EC₃₀) needed to elicit a 30 percent increase in coronary flow is shown in Table I for compounds of the formula (I) with […].

For assay [1], the system named is spontaneously hypertensive rats. The experiment in a line: Spontaneously Hypertensive Rat (SHR) test, arterial pressure monitored via aortic cannula. Format: in vivo. The note with it: SH rats. How it is done: The activity of compounds of formula (I) for the treatment of hypertension was determined using the Spontaneously Hypertensive Rat (SHR) test as described below.
In this test, the arterial pressure of adult spontaneously hypertensive rats (Charles River) is monitored directly via an aortic cannula. The SH rats are anesthetized with an intravenous anesthetic (methohexital). The left carotid artery is isolated and cannulated. The tip of the cannula is advanced to the aorta and the cannula is exteriorized behind the neck at the level of the scapula. Animals are placed in individual cages and allowed to recover from the anesthetic and are kept unrestrained. The arterial cannula is connected to the pressure transducer which is attached to the recorder. The test compounds are administered to at least 3 rats at doses selected in the range of 0.l to l00 mg/kg of body weight by intraperitoneal (i.p.) or oral (p.o.) routes of administration. The arterial pressure and heart rate are monitored for a minimum of 22 hours. A test compound is considered to be active as an antihypertensive agent if the mean arterial pressure (MAp) indicates a fall of >l5 mm of Hg. Each animal serves as its own control.
The results of this test for compounds of formula (I). expressed as "Max Fall Bp" (Maximum Fall in Mean Arterial pressure) are shown in Table I.

Where [2] appears, read: dose 30 mg/kg of body weight p.o., salt form tested per footnotes.

Consider `COc1ccc(/C=C\c2ccccc2)c(CC(C)NCCc2c(Cl)cccc2Cl)c1` (stereo not drawn) [Example 2d, N-[2-(2,6-Dichlorophenyl)ethyl]-5-methoxy-α-methyl-2Z-(2-phenylethenyl)benzeneethanamine (E)-2-Butenedioate (2:l)], for which the EC30 with coronary arteries (salt form tested per footnotes) came out at 0.055 µM. Besides, the “Max Fall BP (Maximum Fall in Mean Arterial pressure)” value (from here on “Max Fall BP”) in assay [1] (setting [2]) is given as 18 (30) mm of Hg.
For the compound `COc1cc(CCNC(C)Cc2cc(OC)ccc2/C=C\c2ccccc2)cc(OC)c1` (stereo not drawn) [Example 3c, N-[2-(3,5-Dimethoxyphenyl)ethyl]-5-methoxy-α-methyl-2Z-(2-phenylethenyl)benzeneethanamine (E)-2-Butenedioate (2:l)], the EC30 in the assay with coronary arteries (salt form tested per footnotes) came out at 0.057 µM. Besides, the “Max Fall BP” value in assay [1] (dose 10 mg/kg of body weight given i.p., tested as the fumarate salt) is given as 38 (10)^b mm of Hg.
As to `COc1ccc(/C=C/c2ccccc2)c(CC(C)NCCc2ccc(Cl)c(Cl)c2)c1` (stereo not drawn) [Example 9, N-[2-(3,4-Dichlorophenyl)ethyl)-5-methoxy-α-methyl-2E-(2-phenylethenyl)benzeneethanamine Hydrochloride], in the assay with coronary arteries (salt form tested per footnotes), the EC30 was 0.024 µM. Further, the “Max Fall BP” value in assay [1] (setting [2]) is reported as 90 (30) mm of Hg.
In the case of `COc1ccc(/C=C/c2ccccc2)c(CCC(C)N(C)CCc2ccc(OC)c(OC)c2)c1` (stereo not drawn) [Example 5, N-[2-(3,4-Dimethoxyphenyl)ethyl]-5-methoxy-N,α-dimethyl-2E-(2-phenylethenyl)benezenepronanamine Hydrochloride], the EC30 in the assay on coronary arteries (salt form tested per footnotes) was 0.012 µM. Further, in assay [1] (setting [2]), the “Max Fall BP” value is 43 (30) mm of Hg.
The like results for `COc1ccc(/C=C/c2ccccc2)c(CCCN(C)CCc2ccc(OC)c(OC)c2)c1` [Example 7e, N-[2-(3,4-Dimethoxyphenyl)ethyl]-5-methoxy-N-methyl-2E-(2-phenylethenyl)benzenepropanamine Biscyclohexylsulfamate] were, in that order, 0.0004 µM and 16 (30) mm of Hg.
In the case of `COc1cc(CCNC(C)Cc2cc(OC)ccc2/C=C/c2ccccc2)cc(OC)c1` (stereo not drawn) [Example 10, N-[2-(3,5-Dimethoxyphenyl)ethyl]-5-methoxy-α-methyl-2E-(2-phenylethenyl)benzeneethanamine (E)-2-Butendioate (3:5)], the EC30 in the assay with coronary arteries (tested as free base) came to 0.001 µM. For the same compound, the “Max Fall BP” value in assay [1] (setting [2]) is on record as 53 (30)* mm of Hg.
Turning to `COc1ccc(/C=C\c2ccccc2)c(CC(C)NCCc2ccc(OC)c(OC)c2)c1` (stereo not drawn) [Example 4c, N-[2-(3,4-Dimethoxyphenyl)ethyl]-5-methoxy-α-methyl-2Z-(2-phenylethenyl)benzeneethanamine Hydrochloride], in the assay on coronary arteries (salt form tested per footnotes), the EC30 turned out to be 0.002 µM. The “Max Fall BP” value in assay [1] (setting [2]) is listed as 21 (30) mm of Hg.
Regarding `COc1ccc(/C=C/c2ccccc2)c(CC(C)NCCc2ccc(OC)c(OC)c2)c1` (stereo not drawn) [Example 8b, N-[2-(3,4-Dimethoxyphenyl)ethyl]-5-methoxy-α-methyl-2E-(2-phenylethenyl)benzeneethanamine Hydrochloride], the EC30 with coronary arteries (salt form tested per footnotes) worked out at 0.001 µM. Moreover, the “Max Fall BP” value in assay [1] (dose 10 mg/kg of body weight p.o., tested as the chloride salt) is listed as 80 (10) mm of Hg; in assay [1] (setting [2]), 77 (30) mm of Hg.
`COc1ccc(/C=C\c2ccccc2)c(CCC(C)N(C)CCc2ccc(OC)c(OC)c2)c1` (stereo not drawn) [Example 6e, N-[2-(3,4-Dimethoxyphenyl)ethyl]-5-methoxy-N,α-dimethyl-2Z-(2-phenylethenyl)benzenepropanamine (E)-2-Butenedioate (2:l)]: in the assay with coronary arteries (salt form tested per footnotes), the EC30 came to 0.019 µM. For the same compound, the “Max Fall BP” value in assay [1] (setting [2]) is recorded as 17 (30) mm of Hg.
